Laboratory results taken from US3997403A, “Antibiotic G-418 and the production thereof” (Schering Corporation, priority 1975, dated 1976).
In brackets after ≈: the same amount, converted by molar mass.

How the values were obtained:
[1] = test system: Staphylococcus aureus Ziegler; assay: In Vitro Antibacterial Activity (Table IV); type: cell-based; conditions: S. aureus Ziegler, Tryptose Phosphate Broth pH 7.2 - 7.5, read-out: MIC (Minimum Inhibitory Concentration)
Excerpt: (§1) In Table IV and Table V are set forth the in vitro antibacterial spectrum of Antibiotic G-418 against a variety of gram-positive and gram-negative bacteria using standard art recognized methods.
(§2) *Minimum Inhibitory Concentration -- Medium: Tryptose Phosphate Broth pH

[2] = test system: Klebsiella pneumoniae DA20; assay: In Vitro Antibacterial Activity (Table IV); type: cell-based; conditions: K. pneumoniae DA20, Tryptose Phosphate Broth pH 7.2 - 7.5, read-out: MIC (Minimum Inhibitory Concentration)
Excerpt: as §1, §2

Streptococcus sp. C = assay: In Vitro Antibacterial Activity (Table IV); type: cell-based; conditions: Tryptose Phosphate Broth pH 7.2 - 7.5, read-out: MIC (Minimum Inhibitory Concentration)
Excerpt: as §1, §2

Streptococcus sp. C203 = assay: In Vitro Antibacterial Activity (Table IV); type: cell-based; conditions: Tryptose Phosphate Broth pH 7.2 - 7.5, read-out: MIC (Minimum Inhibitory Concentration)
Excerpt: as §1, §2

[3] = test system: Pseudomonas aeruginosa VA6; assay: In Vitro Antibacterial Activity (Table IV); type: cell-based; conditions: P. aeruginosa VA6, Tryptose Phosphate Broth pH 7.2 - 7.5, read-out: MIC (Minimum Inhibitory Concentration)
Excerpt: as §1, §2

Escherichia coli Sc = assay: In Vitro Antibacterial Activity (Table IV); type: cell-based; conditions: E. coli Sc, Tryptose Phosphate Broth pH 7.2 - 7.5, read-out: MIC (Minimum Inhibitory Concentration)
Excerpt: as §1, §2

Escherichia coli 894 = assay: In Vitro Antibacterial Activity (Table IV); type: cell-based; conditions: E. coli 894, Tryptose Phosphate Broth pH 7.2 - 7.5, read-out: MIC (Minimum Inhibitory Concentration)
Excerpt: as §1, §2

[4] = test system: Staphylococcus aureus Wood; assay: In Vitro Antibacterial Activity (Table IV); type: cell-based; conditions: S. aureus Wood, Tryptose Phosphate Broth pH 7.2 - 7.5, read-out: MIC (Minimum Inhibitory Concentration)
Excerpt: as §1, §2

[5] = test system: Staphylococcus aureus Gray; assay: In Vitro Antibacterial Activity (Table IV); type: cell-based; conditions: S. aureus Gray, Tryptose Phosphate Broth pH 7.2 - 7.5, read-out: MIC (Minimum Inhibitory Concentration)
Excerpt: as §1, §2

[6] = test system: Pseudomonas aeruginosa 37; assay: In Vitro Antibacterial Activity (Table IV); type: cell-based; conditions: P. aeruginosa 37, Tryptose Phosphate Broth pH 7.2 - 7.5, read-out: MIC (Minimum Inhibitory Concentration)
Excerpt: as §1, §2

[7] = test system: Staphylococcus aureus 209P; assay: In Vitro Antibacterial Activity (Table IV); type: cell-based; conditions: S. aureus 209P, Tryptose Phosphate Broth pH 7.2 - 7.5, read-out: MIC (Minimum Inhibitory Concentration)
Excerpt: as §1, §2

E. Histolytica = assay: Oral activity against experimental cecal E. Histolytica infections in rats; type: in vivo, male Royal Hart rats; conditions: for A.D.I. (average degree of infection): scale 0 to 4, controls averaged 2.2
Excerpt: Table VII and Table VIII set forth in vivo test results which illustrate the antiprotozoal activity of Antibiotic G-418. The host for the tests were recently weaned male Royal Hart rats (3-4 weeks old) weighing about 50-70 g. The test procedure is a modification of one described by R. J. Schnitzer on pages 355-443 in Experimental Chemotherapy, Vol. 1, Academic Press, New York (1963).
*A.D.I. -- defined as the average degree of infection based upon gross
observations of pathological changes in the cecum and microscopic
observations of the number of amoebae found. These observations are
recorded on a scale of from zero to four, zero representing a
substantially normal cecum. Untreated but infected controls range from
about two to four. In the data set forth the controls averaged 2.2.

CN[C@@H]1[C@@H](O)[C@@H](O[C@@H]2[C@@H](O)[C@H](O[C@H]3O[C@H]([C@@H](C)O)[C@@H](O)[C@H](O)[C@H]3N)[C@@H](N)C[C@H]2N)OC[C@]1(C)O [Antibiotic G-418]
MIC [1]: 0.8 µg/mL (≈ 1.61 µM) | MIC [2]: 3 µg/mL (≈ 6.04 µM) | MIC (Streptococcus sp. C): > 25 µg/mL | MIC (Streptococcus sp. C203): 17.5 µg/mL (≈ 35.2 µM) | MIC [3]: 3 µg/mL (≈ 6.04 µM) | MIC (Escherichia coli Sc): 3 µg/mL (≈ 6.04 µM) | MIC (Escherichia coli 894): 7.5 µg/mL (≈ 15.1 µM) | MIC [4]: 0.8 µg/mL (≈ 1.61 µM) | MIC [5]: 7.5 µg/mL (≈ 15.1 µM) | MIC [6]: 17.5 µg/mL (≈ 35.2 µM) | MIC [7]: 0.8 µg/mL (≈ 1.61 µM) | Parasitological Cure Negative/Total (E. Histolytica; oral 3.5 mg/kg/day, 3 days): 0/7 | A.D.I. (average degree of infection) (E. Histolytica; oral 3.5 mg/kg/day, 3 days): 1.7 | Parasitological Cure Negative/Total (E. Histolytica; oral 3.5 mg/kg/day, 6 days): 5/6 | A.D.I. (average degree of infection) (E. Histolytica; oral 3.5 mg/kg/day, 6 days): 0.2 | Parasitological Cure Negative/Total (E. Histolytica; oral 6.5 mg/kg/day, 1 day): 2/5 | A.D.I. (average degree of infection) (E. Histolytica; oral 6.5 mg/kg/day, 1 day): 1.0 | Parasitological Cure Negative/Total (E. Histolytica; oral 6.5 mg/kg/day, 3 days): 4/5 | A.D.I. (average degree of infection) (E. Histolytica; oral 6.5 mg/kg/day, 3 days): 0.4 | Parasitological Cure Negative/Total (E. Histolytica; oral 6.5 mg/kg/day, 6 days): 4/4 | A.D.I. (average degree of infection) (E. Histolytica; oral 6.5 mg/kg/day, 6 days): 0 | Parasitological Cure Negative/Total (E. Histolytica; oral 10 mg/kg/day, 1 day): 4/7 | A.D.I. (average degree of infection) (E. Histolytica; oral 10 mg/kg/day, 1 day): 0.7 | Parasitological Cure Negative/Total (E. Histolytica; oral 10 mg/kg/day, 3 days): 7/7 | A.D.I. (average degree of infection) (E. Histolytica; oral 10 mg/kg/day, 3 days): 0 | Parasitological Cure Negative/Total (E. Histolytica; oral 12.5 mg/kg/day, 6 days): 24/24 | A.D.I. (average degree of infection) (E. Histolytica; oral 12.5 mg/kg/day, 6 days): 0 | Parasitological Cure Negative/Total (E. Histolytica; oral 25 mg/kg/day, 6 days): 19/19 | A.D.I. (average degree of infection) (E. Histolytica; oral 25 mg/kg/day, 6 days): 0
